From ChEMBL document CHEMBL3244132, “Semisynthetic aminoglycoside antibacterials. 6. Synthesis of sisomicin, Antibiotic G-52, and novel 6'-substituted analogues of sisomicin from aminoglycoside 66-40C” (J Med Chem, 1978)
Values after ≈ are worked out from the molar mass of the structure shown. Active and inactive are the calls of the source. The rule behind the calls is not given here.

How the values were obtained:
[1] = tested on: Pseudomonas aeruginosa; assay: Antimicrobial activity against Pseudomonas aeruginosa GN 315 carrying AAC(6') by tube dilution method; type: functional
[2] = tested on: Staphylococcus aureus; assay: Antimicrobial activity against Staphylococcus aureus Ziegler by tube dilution method; type: functional
[3] = tested on: Streptococcus pyogenes; assay: Antimicrobial activity against Streptococcus pyogenes 27 by tube dilution method; type: functional
[4] = tested on: Escherichia coli; assay: Antimicrobial activity against Escherichia coli HL97/W677 carrying AAC(6') by tube dilution method; type: functional
[5] = Acute toxicity in albino CF1 mouse; type: organism-based; conditions: in vivo
[6] = tested on: Rodentolepis nana; assay: Anthelmintic activity against Hymenolepis nana infected in mouse at 195 mg/kg qd for 5 days administered after 2 weeks of infection; type: functional, organism-based; parameters: dose 195 mg/kg
[7] = tested on: Streptococcus pyogenes; assay: Antimicrobial activity against Streptococcus pyogenes Alvarez by tube dilution method; type: functional
[8] = tested on: Staphylococcus aureus; assay: Antimicrobial activity against Staphylococcus aureus 209 P by tube dilution method; type: functional
[9] = tested on: Salmonella typhimurium; assay: Antimicrobial activity against Salmonella typhimurium Gr. B. by tube dilution method; type: functional, Salmonella enterica subsp. enterica serovar Typhimurium; conditions: Salmonella enterica
[10] = tested on: Bacillus subtilis; assay: Antimicrobial activity against Bacillus subtilis ATCC 6633 by tube dilution method; type: functional
[11] = tested on: Heligmosomoides polygyrus; assay: Anthelmintic activity against Nematospiroides dubius infected in mouse at 195 mg/kg qd for 5 days administered after 2 weeks of infection; type: functional, organism-based; parameters: dose 195 mg/kg
[12] = tested on: Streptococcus pyogenes; assay: Antimicrobial activity against Streptococcus pyogenes Group A Cruz by tube dilution method; type: functional
[13] = tested on: Entamoeba histolytica; assay: Antiprotozoal activity against Entamoeba histolytica JH; type: functional
[14] = tested on: Escherichia coli; assay: Antimicrobial activity against Escherichia coli LA290R55 carrying ANT(2'') by tube dilution method; type: functional
[15] = tested on: Klebsiella pneumoniae; assay: Antimicrobial activity against Klebsiella pneumoniae Adler 17 carrying APH(3')-I by tube dilution method; type: functional
[16] = tested on: Staphylococcus aureus; assay: Antimicrobial activity against Staphylococcus aureus Wood by tube dilution method; type: functional
[17] = tested on: Providencia rettgeri; assay: Antimicrobial activity against Providencia rettgeri Anderson by tube dilution method; type: functional
[18] = tested on: Syphacia obvelata; assay: Anthelmintic activity against Syphacia obvelata infected in mouse at 195 mg/kg qd for 5 days administered after 2 weeks of infection; type: functional, organism-based; parameters: dose 195 mg/kg
[19] = tested on: Providencia rettgeri; assay: Antimicrobial activity against Providencia rettgeri Membel by tube dilution method; type: functional
[20] = tested on: Proteus mirabilis; assay: Antimicrobial activity against Proteus mirabilis Harding by tube dilution method; type: functional
[21] = tested on: Providencia; assay: Antimicrobial activity against Providencia 164 carrying AAC(2')-I by tube dilution method; type: functional
[22] = tested on: Pseudomonas aeruginosa; assay: Antimicrobial activity against Pseudomonas aeruginosa St. M. 1395 by tube dilution method; type: functional
[23] = tested on: Serratia marcescens; assay: Antimicrobial activity against Serratia marcescens Dalton by tube dilution method; type: functional
[24] = tested on: Escherichia coli; assay: Antimicrobial activity against Escherichia coli Baker 2 carrying APH(3')-I by tube dilution method; type: functional
[25] = tested on: Escherichia coli; assay: Antimicrobial activity against Escherichia coli ATCC 10536 by tube dilution method; type: functional
[26] = tested on: Klebsiella pneumoniae; assay: Antimicrobial activity against Klebsiella pneumoniae Georgetown 3694 carrying APH(2'') by tube dilution method; type: functional
[27] = tested on: Staphylococcus aureus; assay: Antimicrobial activity against Staphylococcus aureus 59N by tube dilution method; type: functional
[28] = tested on: Histomonas meleagridis; assay: Antiprotozoal activity against Histomonas meleagridis at 20 ug/ml; type: functional
[29] = tested on: Trichomonas vaginalis; assay: Antiprotozoal activity against Trichomonas vaginalis after 48 hrs; type: functional
[30] = tested on: Pseudomonas aeruginosa; assay: Antimicrobial activity against Pseudomonas aeruginosa Stone 130 carrying AAC(3) by tube dilution method; type: functional
[31] = tested on: Streptococcus pyogenes; assay: Antimicrobial activity against Streptococcus pyogenes C by tube dilution method; type: functional
[32] = tested on: Escherichia coli; assay: Antimicrobial activity against Escherichia coli JR88 carrying AAC(3) by tube dilution method; type: functional
[33] = tested on: Pseudomonas aeruginosa; assay: Antimicrobial activity against Pseudomonas aeruginosa St. M. 762 by tube dilution method; type: functional
[34] = tested on: Histomonas meleagridis; assay: Antiprotozoal activity against Histomonas meleagridis; type: functional

Compound | MIC [1] [µg/mL] | MIC [2] [µg/mL] | MIC [3] [µg/mL] | MIC [4] [µg/mL] | LD50 [5] [mg/kg] | MIC [7] [µg/mL] | MIC [8] [µg/mL] | MIC [9] [µg/mL] | MIC [10] [µg/mL] | MIC [12] [µg/mL] | MIC [14] [µg/mL] | MIC [15] [µg/mL] | MIC [16] [µg/mL] | MIC [17] [µg/mL] | MIC [19] [µg/mL] | MIC [20] [µg/mL] | MIC [21] [µg/mL] | MIC [22] [µg/mL] | MIC [23] [µg/mL] | MIC [24] [µg/mL] | further results
CN[C@@H]1[C@@H](O)[C@@H](O[C@@H]2[C@@H](O)[C@H](O[C@H]3OC(CO)=CC[C@H]3N)[C@@H](N)C[C@H]2N)OC[C@]1(C)O | > 25 | 0.3 (≈ 0.669 µM) | > 25 | 0.3 (≈ 0.669 µM) | 65 | > 25 | 0.3 (≈ 0.669 µM) | 3 (≈ 6.69 µM) | 0.075 (≈ 0.167 µM) | > 25 | > 25 | 3 (≈ 6.69 µM) | 0.3 (≈ 0.669 µM) | > 25 | > 25 | 3 (≈ 6.69 µM) | > 25 | 17.5 (≈ 39 µM) | 3 (≈ 6.69 µM) | 17.5 (≈ 39 µM) | Activity [6]: inactive; Activity [11]: inactive; MIC [13]: 10 µg/mL (≈ 22.3 µM); Activity [18]: inactive; MIC [25]: 0.75 µg/mL (≈ 1.67 µM); MIC [26]: > 25 µg/mL; MIC [27]: 0.075 µg/mL (≈ 0.167 µM); Activity [28]: inactive; MIC [29]: < 10 µg/mL; MIC [30]: > 25 µg/mL; MIC [31]: > 25 µg/mL; MIC [32]: > 25 µg/mL; MIC [33]: 3 µg/mL (≈ 6.69 µM)
CN[C@@H]1[C@@H](O)[C@@H](O[C@@H]2[C@@H](O)[C@H](O[C@H]3OC(CN)=CC[C@H]3N)[C@@H](N)C[C@H]2N)OC[C@]1(C)O [SISOMICIN] | 7.5 (≈ 16.8 µM) | 0.03 (≈ 0.067 µM) | 3 (≈ 6.7 µM) | 7.5 (≈ 16.8 µM) | 34 | 7.5 (≈ 16.8 µM) | 0.03 (≈ 0.067 µM) | 0.3 (≈ 0.67 µM) | < 0.01 | 7.5 (≈ 16.8 µM) | 7.5 (≈ 16.8 µM) | 0.3 (≈ 0.67 µM) | 0.03 (≈ 0.067 µM) | > 25 | 3 (≈ 6.7 µM) | 0.3 (≈ 0.67 µM) | 3 (≈ 6.7 µM) | 0.3 (≈ 0.67 µM) | 0.3 (≈ 0.67 µM) | 0.75 (≈ 1.68 µM) | Activity [34]: Active; Activity [13]: Active; MIC [25]: 0.75 µg/mL (≈ 1.68 µM); MIC [26]: 7.5 µg/mL (≈ 16.8 µM); MIC [27]: 0.03 µg/mL (≈ 0.067 µM); Activity [29]: Active; MIC [30]: 17.5 µg/mL (≈ 39.1 µM); MIC [31]: 17.5 µg/mL (≈ 39.1 µM); MIC [32]: 17.5 µg/mL (≈ 39.1 µM); MIC [33]: 0.3 µg/mL (≈ 0.67 µM)
